Experimental data reported in US20210369691A1, “METHODS AND COMPOSITIONS FOR IMPROVING BONE MARROW HEMATOPOIETIC FUNCTIONS” (Sun Yat-Sen University, priority 2018, published 2021).

Tests used:
platelets = experiment: Platelet recovery in peripheral blood after X-ray radiation; assay type: in vivo, mice; conditions: after X-ray 450 cGy; ABC294640 10 mg/kg i.p. every other day; days 0, 1, 7, 14; vs solvent control; **P<0.01; FIG. 8
Description: (§1) Preparation of SphK2 inhibitors was as described in Example 4. Twelve 8-week-old C57 mice purchased from Laboratory Animal Center, Sun Yat-sen University were selected and divided evenly into two groups. The mice were treated with X-ray radiation at a dose of 450 cGy. The injection of the inhibitor ABC294640 and the solvent control solution was as described in Example 4. Intraperitoneal injection of the inhibitor or the solvent control solution started from the day after the X-ray radiation, followed by injections once every other day, at a dose of 10 mg/kg, until the end of the experiment. Periphery blood (PB) of each mouse was separately collected to determine white blood cell (WBC) counts 0, 1, 7 and 14 days after X-ray radiation. T-test analysis was carried out using Graphpad6.0, and differences were considered statistically significant when P<0.05.
The experiment was conducted as described in Example 7. Periphery blood (PB) of each mouse was separately collected to determine platelets (PLT) counts 0, 1, 7 and 14 days after X-ray radiation. T-test analysis was carried out using Graphpad6.0, and differences were considered statistically significant when P<0.05.

hematopoietic stem cells [1] = experiment: Hematopoietic stem cell number after bone marrow transplantation; assay type: in vivo, mice; conditions: 35 days after bone marrow transplantation (900 cGy); ABC294640 10 mg/kg i.p. every other day; **P<0.01; FIG. 10
Description: Twenty-five 8-week-old C57 mice (purchased from Laboratory Animal Center, Sun Yat-sen University) were selected and kept in a specific pathogen free (SPF) environment. 5 mice were randomly selected and sacrificed by cervical dislocation. Femurs and tibias were taken and the bone marrow was obtained from the bone marrow cavity with an 1 ml syringe. Bone marrow was dispersed to form a single cell suspension and lysed with red blood cell lysis buffer for 2 min to remove red blood cells, followed by filtering through a 70 μm filter screen to obtain a single cell suspension. The other 20 mice were treated with X-ray radiation at a dose of 900 cGy, and were injected with 400,000 of the prepared bone marrow single cell suspension via tail vein, respectively. Then, the recipient mice were divided evenly into 2 groups, and mice of the ABC294640 treatment group were subjected to intraperitoneal injection of ABC294640 every other day. Mice in the control group was injected with a solvent solution control (1:1 of physiological saline: PEG400) solution. […] Statistical quantification was performed to determine the number of hematopoietic stem cells using the molecular marker system Lin-Sca-1+c-Kit+CD150+CD48− in combination with flow cytometry. […]

white blood cells = experiment: White blood cell recovery in peripheral blood after X-ray radiation; assay type: in vivo, mice; conditions: after X-ray 450 cGy; ABC294640 10 mg/kg i.p. every other day; days 0, 1, 7, 14; vs solvent control; FIG. 7
Description: as §1

[2] = Survival after repeated high-dose 5FU chemotherapy; assay type: in vivo, mice; conditions: 5FU 150 mg/kg every 7 days, two times; ABC294640 10 mg/kg every other day; vs control group; FIG. 9
Description: Preparation of SphK2 inhibitors was as described in Example 4. […] 8-week-old C57 mice purchased from Laboratory Animal Center, Sun Yat-sen University were selected and divided evenly into two groups. The mice were intraperitoneally injected with 5FU at a dose of 150 mg/kg, once every 7 days for two times in total. The inhibitor ABC294640 was injected starting from the day after 5FU injection, then injected once every other day, at a dose of 10 mg/kg, until the end of the experiment. Comparison of overall survival rates was performed using the Mantel_Cox log-rank test and differences were considered statistically significant when P<0.05.

hematopoietic stem cells [3] = experiment: Hematopoietic repopulation by transplantation of bone marrow cells from inhibitor-treated mice; assay type: in vivo
Description: To analyze whether Sphk2 deficient hematopoietic stem cells have increased hematopoietic function, 100 hematopoietic stem cells (Lin^−Sca-1^+c-Kit^+CD150^+CD48^−) from Sphk2 deficient mice or control donor mice were transplanted into irradiated wide-type recipients along with 2×10^5 CD45.1 bone marrow cells. Adult CD45.1 recipient mice were irradiated with an Orthovoltage X-ray source delivering approximately in two equal doses of 450 cGy at least 3 hours apart. Peripheral blood was collected from the tail vein every 4 weeks after the transplantation. Hematopoietic repopulation function was examined from donor-derived blood cells. To evaluate the hematopoietic function of the hematopoietic stem cells, 2×10^5 bone marrow cells from Sphk2 inhibitor or solvent control treated mice were transplanted into irradiated recipients (as described in Example 13). Peripheral blood was collected from the tail vein every 4 weeks after transplantation. The hematopoietic repopulation function was examined from donor-derived blood cells. The Sphk2 inhibitor was prepared as described in Example 4. Briefly, ABC294640 was purchased from Selleck and dissolved in dimethyl sulfoxide (DMSO), which was finally diluted with a mixture solution of polyethylene glycol 400 (PEG400) and physiological saline (1:1) to be administered at a dose of 10 mg/kg. […]

O=C(NCc1ccncc1)C12CC3CC(C1)CC(c1ccc(Cl)cc1)(C3)C2 [ABC294640, 3-(4-chloro-phenyl)-adamantane-1-carboxylic acid (pyridin-4-ylmethyl)-amide]
number of platelets in the peripheral blood (platelets): significantly increased
number of hematopoietic stem cells in bone marrow (hematopoietic stem cells [1]): increased remarkably
number of white blood cells from the peripheral blood (white blood cells): significantly increased
survival period [2]: significantly (***P<0.001) prolonged
increase of hematopoietic reconstitution level (hematopoietic stem cells [3]; 16 weeks after transplantation of 2x10^5 bone marrow cells from treated mice, FIG. 14 panel c): 1.5 fold
generation of multi-hematopoietic lineages in recipients (hematopoietic stem cells [3]; recipients of bone marrow cells from inhibitor-treated mice, FIG. 14 panel d): able to generate multi-hematopoietic lineages
